# Patent US8940310B2, “Methods of treatment using TLR7 and/or TLR9 inhibitors” (Dynavax Technologies Corporation, priority 2010, dated 2015)
# “Also recorded” adds a separate entry of the source.
# Experiments:
# TLR9 = target: T1, TLR9 (Mus musculus, UniProt Q9EQU3); assay: CpG-C ISS-induced serum cytokines in 129 mice; assay type: in vivo; details: CpG-C ISS with IRS, serum at 6 hr, listed as IRS
# T1 construct: endogenous in cells; host or cells: 129 mice, whole animal (serum IFN-alpha and IL-6)
# T1 sequence (Q9EQU3 26-1032): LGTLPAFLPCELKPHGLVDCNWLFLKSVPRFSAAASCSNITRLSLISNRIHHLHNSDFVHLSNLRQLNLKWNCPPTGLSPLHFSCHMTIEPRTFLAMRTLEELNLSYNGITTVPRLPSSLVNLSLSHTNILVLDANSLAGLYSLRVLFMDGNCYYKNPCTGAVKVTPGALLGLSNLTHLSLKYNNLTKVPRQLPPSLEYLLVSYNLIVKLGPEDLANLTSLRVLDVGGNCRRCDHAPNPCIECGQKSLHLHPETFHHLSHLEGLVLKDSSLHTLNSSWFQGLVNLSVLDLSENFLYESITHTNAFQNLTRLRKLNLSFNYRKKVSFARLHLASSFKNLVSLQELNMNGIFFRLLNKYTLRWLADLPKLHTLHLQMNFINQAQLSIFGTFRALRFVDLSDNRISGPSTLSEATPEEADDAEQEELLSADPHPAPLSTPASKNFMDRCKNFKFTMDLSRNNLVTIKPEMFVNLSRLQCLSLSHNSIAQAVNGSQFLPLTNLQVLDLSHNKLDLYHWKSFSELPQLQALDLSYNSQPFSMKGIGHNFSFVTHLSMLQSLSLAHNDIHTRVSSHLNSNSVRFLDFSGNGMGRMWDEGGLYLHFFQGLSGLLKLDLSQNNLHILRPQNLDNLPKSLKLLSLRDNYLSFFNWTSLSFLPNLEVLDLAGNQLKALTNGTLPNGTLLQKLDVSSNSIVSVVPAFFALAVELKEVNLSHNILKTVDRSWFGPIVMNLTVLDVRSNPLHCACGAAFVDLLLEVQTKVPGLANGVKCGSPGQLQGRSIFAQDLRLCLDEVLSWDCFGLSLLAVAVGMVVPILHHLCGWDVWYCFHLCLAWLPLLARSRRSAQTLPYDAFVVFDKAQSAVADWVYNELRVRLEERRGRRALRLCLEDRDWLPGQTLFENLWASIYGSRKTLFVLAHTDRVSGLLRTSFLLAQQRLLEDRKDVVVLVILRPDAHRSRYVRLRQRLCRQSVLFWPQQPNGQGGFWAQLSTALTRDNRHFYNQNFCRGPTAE
# Experimental: 129 mice were either left untreated or treated with CpG-C ISS (50 μg/mice) alone or with IRS (50 μg/mice) and serum was collected 6 hr later. IFN-α and IL-6 was evaluated by ELISA. n=6 mice per group±standard error of the mean.
# PDC = details: in vitro, with GC
# TLR7 and TLR9 = assay: Tape stripping skin injury in 129 mice; assay type: in vivo; details: 24 hr
# Experimental: C57BL/6 and 129 mice were purchased from Charles River Laboratories. (NZBxNZW)F1 female mice were purchased from Jackson Laboratories and used at 18-22 weeks of age. MyD88/KO and TLR9/KO mouse colonies were maintained at Simonsen Laboratories and used with age matched C57BL/6 wild type controls at 8-12 weeks of age. Tape stripping was performed after shaving the dorsal area (3×3 cm) using 10 strokes with duct tape. IRS was administered just before tape stripping SC at a distant site. Alternatively, in (NZBxNZW)F1 mice, IRS was administered long term. In certain experiments PDC and neutrophils were depleted with 250 μg of antibody given IP at day −2 and day 0, eight hours before tape stripping. Anti-120G8 (Imgenex) was used for depletion of PDC (Asselin-Paturel et al., 2003), and anti-GR1-LY6G (clone 1A8; Biolegend) was used for depletion of neutrophils (Daley et al., 2008). […] Percentage of area with open lesions in (NZBxNZW)F1 and normal mice was evaluated with Nikon software NIS-elements.
# For analysis of cellular infiltrate mice were sacrificed 24 hr later and epidermis and derma were mechanically separated followed by enzymatic digestion with 0.28 U/ML of Liberase 3 (Roche) for 20 minutes at 37° C., passed trough a 70 μm filter washed in RPMI without serum, counted and stained for flow cytometric analyses. […]
substance,measurement,setting,value
"5′-TGCTCCTGGAGGGGTTGT-3′ (DNA, backbone not given here) [SEQ ID NO:42]","CpG-ISS-induced activation, serum IFN-α and IL-6",TLR9,prevented CpG-ISS-induced activation; also recorded: significantly reduced CpG-C ISS-mediated induction of cytokines
same,GC sensitivity of TLR7/9-stimulated PDC,PDC,restored GC sensitivity to PDC
same,expression of IFN-α regulated and pro-inflammatory genes in skin,TLR7 and TLR9; 100 μg s.c. before tape stripping,significantly reduced the expression of both IFN-α regulated genes and pro-inflammatory genes
same,infiltration of cells including PDC and neutrophils,TLR7 and TLR9,no measurable effect on infiltration of cells
